Like-named read-outs stand apart in the source and are kept apart here.
Experiments:
AC8-C2b/CaM = target: T1, AC8-C2b/CaM (Homo sapiens, UniProt P0DP23); experiment: AC8-C2b/CaM FP counterscreen assay; assay type: binding; conditions: for Ki (μM) AC8 C2b: Cheng-Prusoff from FP IC50 and Kd, n/i given where none; for Ki ratio (AC8-C2b/AC1): ratio >1: more potent in AC1/CaM FP;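 for all read-outs here: fluorescence polarization of AC peptide binding to GST-CaM in HEPES buffer with KCl and 50 µM CaCl2, compound preincubated 30 min with GST-CaM, DMSO and calmidazolium as controls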
T1 construct: made in house; host or cells: E. coli BL21-CodonPlus (DE3)-RIPL

CaM = target: T2, CaM (Homo sapiens, UniProt P0DP23); experiment: 1H-15N HSQC NMR of 15N-CaM with compound; assay type: binding; conditions: 5 equivalent molar excess over 100 μM CaM
T2 construct: 6X-His-GST (N, cleaved yes); made in house; host or cells: E. coli BL21-CodonPlus (DE3)-RIPL in M9 minimal media with 15NH4Cl
Description: All NMR samples contained 100 μM ^15N-CaM in 20 mM HEPES pH 7.4, 100 mM KCl, 10 mM CaCl2, 10% D2O, and 5% DMSO. Initial spectra were collected for CaM alone before individual compounds were titrated to observe chemical shift perturbations. All spectra were acquired at 298 K using a 600 MHz Bruker Avance NEO NMR spectrometer with a triple resonance gradient cryoprobe. NMR spectra were processed using NMRPipe and analyzed using NMRFAM-SPARKY.

AC8-Nt/CaM = target: T3, AC8-Nt/CaM (Homo sapiens, UniProt P0DP23); experiment: AC8-Nt/CaM FP counterscreen assay; assay type: binding; conditions: for Ki (μM) AC8 NT: Cheng-Prusoff from FP IC50 and Kd, n/i given where none; for Ki ratio (AC8 NT/AC1): ratio >1: more potent in AC1/CaM FP;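 for all read-outs here: fluorescence polarization of AC peptide binding GST-CaM in HEPES buffer with CaCl2, compound preincubated with CaM 30 min, peptide read after 2 h at room temperature in dark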
T3 construct: made in house; host or cells: E. coli BL21-CodonPlus (DE3)-RIPL

AC1/CaM PPI = target: T4, AC1/CaM PPI (Homo sapiens, UniProt P0DP23); experiment: AC1/CaM NanoBiT assay in HEK293T cells; assay type: cell-based; conditions: HEK293T, thapsigargin-stimulated, AUC; read-out: Nanobit: AC1-CaM IC50 (μM ± SEM)
T4 construct: human AC1 (hAC1) residues 1–1,118 were cloned; The hCaM residues 1–149, residues 1–1,248 of rat AC8 (rAC8); expressed in transfected cells; host or cells: HEK293T, transient transfection

HEK293T cells = experiment: CellTiter-Glo 2.0 cell viability assay; assay type: cell-based;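 note: luminescence read-out after 30 min compound exposure at 37 °C in HEPES-buffered HBSS, scaled to vehicle-treated cells as 100% and cell-free buffer wells as 0%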
[1] = CellTiter-Glo 2.0 cell viability assay; assay type: cell-based; conditions: human, HEK293T cells, pH 7.4; for viability at 30 min: at the compound's AC1/CaM NanoBiT IC50 concentration, read-out: % Viable Cells at AC1 IC50;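 for all read-outs here: luminescence read-out after 30 min compound exposure at 37 °C in HEPES-buffered HBSS, scaled to vehicle-treated cells as 100% and cell-free buffer wells as 0%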
AC1 = target: T5, AC1 (Homo sapiens, UniProt Q08828); experiment: cAMP accumulation assay, AC1-HEK Δ3/6 KO cells; assay type: cell-based; conditions: for inhibition of AC1 activity (efficacy): initial characterization of hits, data not shown; for inhibition of AC1 activity: CDI analog set, maximal inhibition of A23187 response
T5 construct: expressed in transfected cells
T5 sequence (Q08828 whole entry): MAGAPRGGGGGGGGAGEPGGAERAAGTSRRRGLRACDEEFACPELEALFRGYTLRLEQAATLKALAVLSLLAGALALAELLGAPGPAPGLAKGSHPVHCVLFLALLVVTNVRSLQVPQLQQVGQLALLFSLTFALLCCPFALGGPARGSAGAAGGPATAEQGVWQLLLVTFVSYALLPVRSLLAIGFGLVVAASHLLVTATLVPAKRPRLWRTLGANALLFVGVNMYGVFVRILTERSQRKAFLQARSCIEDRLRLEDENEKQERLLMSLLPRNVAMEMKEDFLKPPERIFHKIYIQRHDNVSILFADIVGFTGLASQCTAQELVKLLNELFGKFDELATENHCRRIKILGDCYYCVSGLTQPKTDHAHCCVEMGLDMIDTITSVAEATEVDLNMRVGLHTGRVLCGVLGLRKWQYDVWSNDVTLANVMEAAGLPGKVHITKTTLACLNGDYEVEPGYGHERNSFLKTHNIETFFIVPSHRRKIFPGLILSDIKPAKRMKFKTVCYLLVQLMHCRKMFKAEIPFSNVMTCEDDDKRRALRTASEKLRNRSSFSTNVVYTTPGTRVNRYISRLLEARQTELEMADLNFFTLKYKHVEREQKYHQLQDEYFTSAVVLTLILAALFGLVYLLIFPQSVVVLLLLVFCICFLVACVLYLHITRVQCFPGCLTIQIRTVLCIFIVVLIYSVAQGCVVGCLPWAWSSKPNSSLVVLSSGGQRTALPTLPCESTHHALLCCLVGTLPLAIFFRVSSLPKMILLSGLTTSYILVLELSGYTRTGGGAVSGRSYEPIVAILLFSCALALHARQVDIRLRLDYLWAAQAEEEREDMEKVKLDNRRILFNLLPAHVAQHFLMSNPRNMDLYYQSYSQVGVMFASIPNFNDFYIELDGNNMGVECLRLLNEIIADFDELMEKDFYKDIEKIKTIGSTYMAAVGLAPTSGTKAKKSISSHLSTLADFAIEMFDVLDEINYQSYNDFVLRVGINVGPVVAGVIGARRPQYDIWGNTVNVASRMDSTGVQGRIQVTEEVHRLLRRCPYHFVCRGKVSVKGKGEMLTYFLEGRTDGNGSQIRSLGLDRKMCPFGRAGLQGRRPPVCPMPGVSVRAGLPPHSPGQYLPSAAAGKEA
Description: Cells were then incubated for 1 h at 37°C and 5% CO2. Cells were then treated with varying concentrations of inhibitors for 30 min, followed by treatment with calcium ionophore A23187 (3 μM) in 500 μM 3-isobutyl-1-methylxanthine (IBMX), a phosphodiesterase inhibitor, for 1 h at RT (Sigma Aldrich, St. Louis, MO). Finally, Cisbio HTRF detection reagents were added and incubated for 1–24 h at RT. Plates were read according to manufacturer’s protocol on an HTRF-compatible plate reader at 620 and 665 nm cAMP concentrations were interpolated from a cAMP standard curve. […] For cytotoxicity assays, compounds were tested at 30 μM and this protocol was used with the exception of detection reagents; CellTiter-Glo 2.0 reagent was used according to manufacturer’s protocol and luminescence was read on the Synergy Neo2 plate reader. Data are normalized to cells treated with vehicle (100%) or 2% tween (0%) and are represented as the percent of vehicle, from the average of three independent experiments (N = 3).

AC1-C1b/CaM = target: T6, AC1-C1b/CaM (Homo sapiens, UniProt P0DP23); experiment: AC1-C1b/CaM fluorescence polarization (FP) assay; assay type: binding; conditions: for IC50: 100 nM AC1-C1b, 100 nM GST-CaM, 95% CI in brackets; for Ki: Cheng-Prusoff from FP IC50 and Kd; for AC1-CaM FP % inhib: relative to 100 μM CDZ (100% inhibition), highest concentration tested
T6 construct: made in house; host or cells: E. coli BL21-CodonPlus (DE3)-RIPL

AC8/CaM PPI = target: T7, AC8/CaM PPI (Homo sapiens, UniProt P0DP23); experiment: AC8/CaM NanoBiT assay in HEK293T cells; assay type: cell-based, rat; conditions: for IC50: HEK293T, thapsigargin-stimulated, AUC, read-out: Nanobit: AC8-CaM IC50 (μM ± SEM); for fold selective for AC8 over AC1 in the NanoBiT assay: AC8/CaM vs AC1/CaM NanoBiT
T7 construct: confirmed as an AC1/AC8 non-selective hit against full-length AC1- and AC8-CaM in the NanoBiT assay; The hCaM residues 1–149, residues 1–1,248 of rat AC8 (rAC8); expressed in transfected cells; host or cells: HEK293T, transient transfection

AC8 = target: T8, AC8 (Homo sapiens, UniProt P40145); experiment: cAMP accumulation assay, AC8-HEK Δ3/6 KO cells; assay type: cell-based; conditions: CDI analog SAR set, 3 μM A23187; read-out: IC50 (μM) ± SEM AC8
T8 construct: expressed in transfected cells
T8 sequence (P40145 whole entry, species assumed): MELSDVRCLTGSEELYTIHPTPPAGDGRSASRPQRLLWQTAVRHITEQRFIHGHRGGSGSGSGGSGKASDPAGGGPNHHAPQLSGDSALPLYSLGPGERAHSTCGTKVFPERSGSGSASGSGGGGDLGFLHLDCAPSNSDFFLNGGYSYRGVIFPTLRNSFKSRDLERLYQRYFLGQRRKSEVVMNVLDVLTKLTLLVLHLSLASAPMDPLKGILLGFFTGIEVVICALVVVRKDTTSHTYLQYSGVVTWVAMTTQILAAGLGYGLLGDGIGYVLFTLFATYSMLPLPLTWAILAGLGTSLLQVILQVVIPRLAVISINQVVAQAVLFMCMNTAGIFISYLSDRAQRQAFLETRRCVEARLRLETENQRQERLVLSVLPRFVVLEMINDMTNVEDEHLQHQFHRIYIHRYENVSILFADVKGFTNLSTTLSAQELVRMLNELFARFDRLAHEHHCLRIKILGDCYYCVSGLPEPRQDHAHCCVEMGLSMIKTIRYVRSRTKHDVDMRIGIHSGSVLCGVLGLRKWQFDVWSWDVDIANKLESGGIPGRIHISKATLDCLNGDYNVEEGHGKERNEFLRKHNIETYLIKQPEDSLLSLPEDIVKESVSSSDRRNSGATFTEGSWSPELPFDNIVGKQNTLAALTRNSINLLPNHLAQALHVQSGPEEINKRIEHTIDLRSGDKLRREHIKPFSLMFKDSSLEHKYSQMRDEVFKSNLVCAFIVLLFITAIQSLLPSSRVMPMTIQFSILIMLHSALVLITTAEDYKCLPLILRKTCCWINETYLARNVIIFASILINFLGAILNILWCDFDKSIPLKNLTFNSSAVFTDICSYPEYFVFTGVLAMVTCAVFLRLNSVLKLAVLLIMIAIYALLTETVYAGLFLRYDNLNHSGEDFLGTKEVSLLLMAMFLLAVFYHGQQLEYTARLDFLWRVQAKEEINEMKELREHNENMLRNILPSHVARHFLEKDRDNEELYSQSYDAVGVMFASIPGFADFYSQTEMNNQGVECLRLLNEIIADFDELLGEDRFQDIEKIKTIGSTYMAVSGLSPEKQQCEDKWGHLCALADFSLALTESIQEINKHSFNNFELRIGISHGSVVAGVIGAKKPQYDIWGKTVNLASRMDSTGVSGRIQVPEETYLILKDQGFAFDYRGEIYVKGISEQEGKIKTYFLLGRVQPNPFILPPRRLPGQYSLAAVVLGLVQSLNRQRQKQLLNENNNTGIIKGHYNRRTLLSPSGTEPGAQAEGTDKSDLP
Description: (§1) Cryopreserved HEK293 cells with AC3 and AC6 knocked out, and stably expressing AC1, AC2, AC5, or AC8 (AC1-HEK Δ3/6 KO, AC2-HEK Δ3/6 KO, AC5-HEK Δ3/6 KO, or AC8-HEK Δ3/6 KO cells, respectively; [Soto-Velasquez et al., 2018]) were plated at 5,000 cells/well. Cells were then incubated for 1 h at 37°C and 5% CO2. Cells were then treated with varying concentrations of inhibitors for 30 min, followed by treatment with calcium ionophore A23187 (3 μM) in 500 μM 3-isobutyl-1-methylxanthine (IBMX), a phosphodiesterase inhibitor, for 1 h at RT (Sigma Aldrich, St. Louis, MO). Finally, Cisbio HTRF detection reagents were added and incubated for 1–24 h at RT. Plates were read according to manufacturer’s protocol on an HTRF-compatible plate reader at 620 and 665 nm cAMP concentrations were interpolated from a cAMP standard curve. […] For cytotoxicity assays, compounds were tested at 30 μM and this protocol was used with the exception of detection reagents; CellTiter-Glo 2.0 reagent was used according to manufacturer’s protocol and luminescence was read on the Synergy Neo2 plate reader. Data are normalized to cells treated with vehicle (100%) or 2% tween (0%) and are represented as the percent of vehicle, from the average of three independent experiments (N = 3).

AC2 = target: T9, AC2 (Homo sapiens, UniProt Q08462); experiment: cAMP accumulation assay, AC2-HEK Δ3/6 KO cells; assay type: cell-based; conditions: for % Inhibited at AC2 ± SEM: 30 μM; for inhibition at 30 µM: read-out: % Inhibited at AC2 ± SEM
T9 construct: expressed in transfected cells
T9 sequence (Q08462 whole entry): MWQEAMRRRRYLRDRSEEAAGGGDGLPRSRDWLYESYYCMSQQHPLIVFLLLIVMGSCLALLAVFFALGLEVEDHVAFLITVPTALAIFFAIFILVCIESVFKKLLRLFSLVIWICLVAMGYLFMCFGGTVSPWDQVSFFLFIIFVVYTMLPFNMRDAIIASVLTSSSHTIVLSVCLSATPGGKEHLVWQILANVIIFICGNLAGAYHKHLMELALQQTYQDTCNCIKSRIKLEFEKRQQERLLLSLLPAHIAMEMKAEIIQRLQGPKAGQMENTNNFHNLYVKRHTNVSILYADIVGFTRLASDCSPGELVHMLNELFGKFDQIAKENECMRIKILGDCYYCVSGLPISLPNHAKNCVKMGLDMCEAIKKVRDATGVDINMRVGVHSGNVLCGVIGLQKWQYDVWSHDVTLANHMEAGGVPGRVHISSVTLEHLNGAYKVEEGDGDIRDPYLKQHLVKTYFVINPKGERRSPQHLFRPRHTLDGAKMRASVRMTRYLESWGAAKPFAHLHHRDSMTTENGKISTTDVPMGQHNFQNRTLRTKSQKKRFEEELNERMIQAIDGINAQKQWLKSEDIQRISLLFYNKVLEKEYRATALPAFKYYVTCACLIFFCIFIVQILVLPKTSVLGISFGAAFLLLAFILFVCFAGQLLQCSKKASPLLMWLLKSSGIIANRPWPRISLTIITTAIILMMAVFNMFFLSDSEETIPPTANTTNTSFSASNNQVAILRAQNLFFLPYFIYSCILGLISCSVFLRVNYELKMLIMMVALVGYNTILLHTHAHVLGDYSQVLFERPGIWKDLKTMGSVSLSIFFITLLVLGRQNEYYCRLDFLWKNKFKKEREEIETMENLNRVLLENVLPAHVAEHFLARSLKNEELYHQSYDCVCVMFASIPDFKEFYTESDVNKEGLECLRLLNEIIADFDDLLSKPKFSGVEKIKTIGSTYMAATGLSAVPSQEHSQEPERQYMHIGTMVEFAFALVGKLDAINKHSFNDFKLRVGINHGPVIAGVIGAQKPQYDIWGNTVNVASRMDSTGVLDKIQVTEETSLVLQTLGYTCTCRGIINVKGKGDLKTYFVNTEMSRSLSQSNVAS
Description: as §1

[2] = Cytotoxicity assay (CellTiter-Glo 2.0) in AC1-HEK Δ3/6 KO cells; assay type: cell-based; conditions: human, percent of vehicle, read-out: % Viable Cells at AC1 30 μM
Description: as §1

AC5 = target: T10, AC5 (Homo sapiens, UniProt O95622); experiment: cAMP accumulation assay, AC5-HEK Δ3/6 KO cells; assay type: cell-based; conditions: for inhibition at 30 µM: read-out: % Inhibited at AC5 ± SEM
T10 construct: expressed in transfected cells
T10 sequence (O95622 whole entry, species assumed): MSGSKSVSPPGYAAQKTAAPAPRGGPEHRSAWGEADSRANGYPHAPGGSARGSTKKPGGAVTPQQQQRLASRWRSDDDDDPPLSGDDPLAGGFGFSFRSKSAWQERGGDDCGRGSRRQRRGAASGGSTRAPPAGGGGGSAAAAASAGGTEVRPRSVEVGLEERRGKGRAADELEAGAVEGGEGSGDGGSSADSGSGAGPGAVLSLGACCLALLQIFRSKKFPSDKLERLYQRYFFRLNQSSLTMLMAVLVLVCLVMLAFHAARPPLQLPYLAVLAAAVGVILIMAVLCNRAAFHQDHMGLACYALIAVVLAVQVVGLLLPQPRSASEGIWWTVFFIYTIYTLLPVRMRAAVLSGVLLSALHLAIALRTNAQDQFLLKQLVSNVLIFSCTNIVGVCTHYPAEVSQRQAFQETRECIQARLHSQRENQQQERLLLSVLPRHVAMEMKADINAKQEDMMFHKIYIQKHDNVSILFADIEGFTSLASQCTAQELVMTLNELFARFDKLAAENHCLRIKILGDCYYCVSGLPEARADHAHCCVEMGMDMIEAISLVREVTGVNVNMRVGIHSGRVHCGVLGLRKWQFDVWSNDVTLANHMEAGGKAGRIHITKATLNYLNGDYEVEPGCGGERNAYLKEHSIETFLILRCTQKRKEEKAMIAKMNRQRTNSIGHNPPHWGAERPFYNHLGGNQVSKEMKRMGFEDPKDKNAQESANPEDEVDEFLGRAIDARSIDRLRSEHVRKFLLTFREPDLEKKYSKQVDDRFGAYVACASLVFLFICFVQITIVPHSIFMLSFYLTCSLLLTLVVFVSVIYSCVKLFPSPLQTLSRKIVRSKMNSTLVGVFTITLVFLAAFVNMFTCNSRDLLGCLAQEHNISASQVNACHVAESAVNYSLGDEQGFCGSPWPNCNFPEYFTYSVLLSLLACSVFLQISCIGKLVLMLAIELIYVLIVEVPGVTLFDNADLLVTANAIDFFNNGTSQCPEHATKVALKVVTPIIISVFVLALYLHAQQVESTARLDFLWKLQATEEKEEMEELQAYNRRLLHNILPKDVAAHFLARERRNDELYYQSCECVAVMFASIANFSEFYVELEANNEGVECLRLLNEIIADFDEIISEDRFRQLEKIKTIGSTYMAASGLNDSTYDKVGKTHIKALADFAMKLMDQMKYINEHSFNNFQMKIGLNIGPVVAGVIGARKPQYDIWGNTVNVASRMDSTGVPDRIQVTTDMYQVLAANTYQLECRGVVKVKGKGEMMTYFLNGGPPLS
Description: as §1

[3] = initial examination, 10,000 cells per well, 3 μM A23187, 1 h RT, read-out: AC1 IC50 ± SEM
[4] = CDI analog SAR set, 3 μM A23187, read-out: IC50 (μM) ± SEM AC1

Ki (μM) AC8 C2b (AC8-C2b/CaM) | Ki ratio (AC8-C2b/AC1) (AC8-C2b/CaM) | chemical shift perturbations (CSP) of 15N-CaM (CaM) | Ki (μM) AC8 NT (AC8-Nt/CaM) | Ki ratio (AC8 NT/AC1) (AC8-Nt/CaM) | IC50 (AC1/CaM PPI) | IC50 (AC1; [3]) | IC50 (AC1-C1b/CaM) | Ki (AC1-C1b/CaM) | IC50 (AC8/CaM PPI) | inhibition of AC1 activity (efficacy) (AC1) | AC1-CaM FP % inhib (AC1-C1b/CaM) | fold selective for AC8 over AC1 in the NanoBiT assay (AC8/CaM PPI) | IC50 (AC8) | IC50 (AC1; [4]) | inhibition of AC1 activity (AC1) | % Inhibited at AC2 ± SEM (AC2) | inhibition at 30 µM (AC2) | SMILES | viability at 30 min [1] | viability at 30 min, 30 μM [2] | further results
 |  |  |  |  |  |  |  |  |  |  |  |  | 2.7 ± 0.24 µM | 2.75 ± 0.82 µM | 100% | 15 ± 11% | < 16% | CCc1cc(C(c2cccs2)N2CCC(C)CC2)c(NC(=O)c2ccco2)s1 (stereo not shown) [Compound 24] |  | 77% | % Inhibited at AC5 ± SEM (AC5; 30 μM): 16 ± 11%; inhibition at 30 µM (AC5): < 16%
 |  |  |  |  |  |  |  |  |  |  |  |  | 8.85 ± 2.7 µM | 6.39 ± 0.89 µM | 100% |  | 52 ± 11% | Cc1cc(C(c2cccs2)N2CCN(C)CC2)c(NC(=O)c2ccco2)s1 (stereo not shown) [Compound 25] |  | 94% | inhibition at 30 µM (AC5): 46 ± 5%
 |  |  |  |  |  |  |  |  |  |  |  |  | 1.86 ± 0.32 µM | 0.89 ± 0.04 µM | 100% | 10 ± 8% | < 16% | O=C(Nc1sc2c(c1C(c1cccs1)N1CCOCC1)CCCC2)c1ccco1 (stereo not shown) [Compound 32] |  | 100% | 

Further lines, the compound ahead of its results:

SMILES | Ki (μM) AC8 C2b (AC8-C2b/CaM) | Ki ratio (AC8-C2b/AC1) (AC8-C2b/CaM) | chemical shift perturbations (CSP) of 15N-CaM (CaM) | Ki (μM) AC8 NT (AC8-Nt/CaM) | Ki ratio (AC8 NT/AC1) (AC8-Nt/CaM) | IC50 (AC1/CaM PPI) | IC50 (AC1; [3]) | IC50 (AC1-C1b/CaM) | Ki (AC1-C1b/CaM) | IC50 (AC8/CaM PPI) | inhibition of AC1 activity (efficacy) (AC1) | AC1-CaM FP % inhib (AC1-C1b/CaM) | fold selective for AC8 over AC1 in the NanoBiT assay (AC8/CaM PPI) | IC50 (AC8) | IC50 (AC1; [4]) | inhibition of AC1 activity (AC1) | % Inhibited at AC2 ± SEM (AC2) | inhibition at 30 µM (AC2) | viability at 30 min [1] | viability at 30 min, 30 μM [2] | further results
CC(=O)Oc1c(Sc2ccc(Cl)cc2)c(C)nn1C(C)(C)C [Compound 13] | n/i | AC1 Selective | largest CSPs | n/i | AC1 Selective | 16.1 ± 1.13 µM | 31 ± 6.63 µM | 73.5 µM | 17.4 µM | 13.1 ± 1.19 µM |  |  |  |  |  |  |  |  | 96% |  | cell viability reduced at highest concentration tested (HEK293T cells; 316 μM): ~50%; cell viability at ∼300 μM (HEK293T cells; ∼300 μM): decrease in cell viability
O=S(=O)(Nc1ccc2c(c1)N(S(=O)(=O)c1ccc(F)cc1)CCC2)c1cccc(F)c1 [Compound 18] | n/i | AC1 Selective | modest chemical shift changes | n/i | AC1 Selective | 16.1 ± 1.12 µM | 6.7 ± 0.7 µM | 38.4 µM | 9.1 µM | 5.71 ± 1.22 µM | ~70% | 54% | ~3 fold |  |  |  |  |  | 100% |  | viability at 30 min, 316 µM ([1]; 316 μM, read-out: cell viability at highest concentration tested): 90%
Cn1cc(C(=O)Nc2ccc(Cl)cc2Cl)c2[nH]c(=O)n(-c3ccc(Cl)cc3)c(=O)c21 [Compound 21] | n/i | AC1 Selective | modest chemical shift changes | n/i | AC1 Selective | 25.6 ± 1.42 µM | 8.77 ± 4.47 µM | 9.9 µM |  | 6.8 ± 1.19 µM | ~50% | 59% | 2- to 4 fold |  |  |  |  |  | 100% |  | 
